Measurements: patent US20010018416A1, “COMPOSITIONS AND METHODS FOR TREATING HEPATITIS-C” (priority 1997, published 2001)

Tests used:
[1] = test system: A 549 cells (human small cell lung carcinoma); experiment: DNA fragmentation test (LDH released by dying cells measured by optic density) after TNF-α; type: cell-based; conditions: A549; TNF-α 10 nanograms/ml; GMDP 1 and 2 μg/ml; 8 hours
Experimental: The LDH analysis procedure is described above. A 549 cells (human small cell lung carcinoma) were utilized for the DNA fragmentation test and treated with GMDP 1 ug/ml and with GMDP 2 ug/ml for 2 hours and then treated with human TNF-α (Sigma Corp., St. Louis, Mo.). FIGS. 8 and 9 are plots of the optical density measurements of two different scans each with six samples utilizing the DNA fragmentation procedure. […] TNF-α levels were 10 nanograms/ml for all samples, while samples 1-4 contained no GMDP, sample 5 contained 1 μg/ml GMDP and sample 6 contained 2 μg/ml GMDP. Sample 1 was analyzed after 0 hours, sample 2 analyzed after 2 hours, sample 3 analyzed after 4 hours, while samples 4, 5, and 6 were analyzed after 8 hours. Accordingly, only samples 5 and 6 from each scan measure cell protection after 8 hours. […] In other words, the higher purity GMDP drastically increases cell protection and antiapoptotic activity.

[2] = test system: human CD4+ lymphocytes taken from AIDS patient; experiment: LDH assay of the inhibition of Fas antigen mediated apoptosis in vitro; type: cell-based; conditions: LDH release 16 h after anti-Fas antibodies, FIG. 3
Experimental: The following cell lines were used for this assay: A549 (human lung carcinoma cells), A431 (human […]), L929 (mouse […]), human CD4+ lymphocytes taken from AIDS patient. All cells are commercially available from ATCC. They were maintained in DME medium supplemented with 10% FCS and glutamine in CO2 incubator. Lactate dehydrogenase (LDH) assay Cells were seeded into 35 mm Petri dishes and grown up to 70% confluency. Then they were treated with human recombinant antibodies against Fas antigen (gift from […] Co.) in the concentration indicated in the figures. In cases where the cells were not spontaneously sensitive to Fas ligand induced cytolysis, cycloheximide (CHX), a powerful blocker of the protein synthesis, which sensitizes the cells to anti Fas antibodies action, was used in concentration of 25 μg/ml. Sixteen hours after treatment, 20 μl samples of the cultured supernatants were removed and assayed for LDH release by the Cytotox 96 assay (Promega Biotech., Madison, Wis.)in accordance with the manufacturer's instructions. This methodology is based upon the fact that when cells are dying they are releasing LDH. […] These samples were assayed in triplicate on an EL340 Microplate reader (Bic) Tech Instruments Inc.) at 490 nm wave length. The average of these three readings was plated on the graphs (FIGS. 1, 2, 3 and 4).

hepatitis-C = test system: hepatitis-C
Experimental: Twelve patients in the active stage of hepatitis-C were selected for this study. The study group consisted of eight females and four males between 36 and 57 years of age. […] The control powder contained vegetable oil, corn syrup solids, and lactose. Quality control (to check for product identity and purity) was done by HPLC through comparisons with those obtained from reference samples from Sigma Corp, St Louis, Mo. The GMDP powder was diluted with 10 ml sterile distilled water. The daily GMDP dosage ranged from 0.1-0.5 mg/kg of the patient's body weight for blastolysine 80-120 mg/kg of body weight. Statistical analysis were done with Epi-Info Statistical Package (Center for Disease Control and Prevention, Atlanta, Ga.) with two way comparison by the Fischer's exact test (two tailed). Eleven patients were orally administered GMDP at dosage of […] daily in a water solution for one or two months. One patient with 44000×1000 viral load and early liver cirrhosis was treated for one year. GMDP at dosage of 0.1-0.5 mg/kg daily was administered to 11 patients.

Compound | optical density relative to cells exposed to GMDP of about 97.3% purity [1] | maximum inhibition of Fas Ag antibodies mediated cell lysis (reduction) [2] | reduction in bilirubin concentration (hepatitis-C; 2 patients with elevated level) | decrease of LDH and GGTP activity (hepatitis-C; 7 patients who had elevated level) | effect on AST and APT activity (hepatitis-C; 7 patients who had elevated level of these enzymes) | fatigue and nausea (hepatitis-C; after first week, all patients who had these symptoms) | serum HPC RNA test, reduction of viral load (hepatitis-C; after the first three weeks of treatment, all patients) | overall clinical conditions (hepatitis-C; all patients treated, follow up period) | toxic effects (hepatitis-C; human, in vivo, po) | free iron test (hepatitis-C; one patient with high levels of free iron) | effect on alkaline phosphates activity (hepatitis-C; one patient with previously elevated level) | follow-up liver biopsy, pathology examination (hepatitis-C; one patient, end of one year treatment) | follow-up liver biopsy (hepatitis-C; two patients with diagnosed mild necrosis and fibrosis)
CC(=O)NC1C(OC2C(CO)OC(O)C(NC(C)=O)C2OC(C)C(=O)NC(C)C(=O)NC(CCC(=O)O)C(N)=O)OC(CO)C(O)C1O [GMDP of about 98.3% purity, N-acetyl-D-glucosaminyl-(β1-4)-N-acetylmuramyl-L-alanyl-D-isoglutamine] | less than ½ | – | – | – | – | – | – | – | – | – | – | – | –
CC(=O)NC1C(OC2C(CO)OC(O)C(NC(C)=O)C2OC(C)C(=O)NC(C)C(=O)NC(CCC(=O)O)C(N)=O)OC(CO)C(O)C1O [GMDP, N-acetyl-D-glucosaminyl-(β1-4)-N-acetylmuramyl-L-alanyl-D-isoglutamine] | – | 72% | 19%(3) | 34% (6) | beneficial effect | completely subsided | two-three fold reduction | improved | No patients experienced toxic effects | full normalization | Lowering effect | no sign of previous necrosis and cirrhosis | no necrosis or fibrotic change was detectable
